The values below come from patent US10239883B2, “4-imidazopyridazin-1-yl-benzamides as BTK inhibitors” (Merck Sharp & Dohme B.V., priority 2011, dated 2019).

Molecules are shown by their SMILES.

One assay addresses Lck enzyme (Homo sapiens (Human), UniProt P06239). Nature of the assay: Lck enzyme activity, IMAP fluorescence polarization assay. Particulars: 60 min pre-incubation, 6 μM ATP, bin bound in μM.
A further assay has as its target Lyn enzyme (Homo sapiens (Human), UniProt P07948). The assay is described as follows: Lyn enzyme activity, IMAP fluorescence polarization assay. Particulars: for EC50 Lyn activity values: IMAP, 60 min pre-incubation, 2 μM ATP, bin bound in μM.
The target of a further assay is Btk enzyme (His-Btk) (Homo sapiens (Human), UniProt Q06187). The assay is described as follows: Btk enzyme activity, IMAP fluorescence polarization assay. Particulars: 60 min pre-incubation, 5 μM ATP, bin bound in nM.
Chain of Btk enzyme (His-Btk) (Q06187 whole entry): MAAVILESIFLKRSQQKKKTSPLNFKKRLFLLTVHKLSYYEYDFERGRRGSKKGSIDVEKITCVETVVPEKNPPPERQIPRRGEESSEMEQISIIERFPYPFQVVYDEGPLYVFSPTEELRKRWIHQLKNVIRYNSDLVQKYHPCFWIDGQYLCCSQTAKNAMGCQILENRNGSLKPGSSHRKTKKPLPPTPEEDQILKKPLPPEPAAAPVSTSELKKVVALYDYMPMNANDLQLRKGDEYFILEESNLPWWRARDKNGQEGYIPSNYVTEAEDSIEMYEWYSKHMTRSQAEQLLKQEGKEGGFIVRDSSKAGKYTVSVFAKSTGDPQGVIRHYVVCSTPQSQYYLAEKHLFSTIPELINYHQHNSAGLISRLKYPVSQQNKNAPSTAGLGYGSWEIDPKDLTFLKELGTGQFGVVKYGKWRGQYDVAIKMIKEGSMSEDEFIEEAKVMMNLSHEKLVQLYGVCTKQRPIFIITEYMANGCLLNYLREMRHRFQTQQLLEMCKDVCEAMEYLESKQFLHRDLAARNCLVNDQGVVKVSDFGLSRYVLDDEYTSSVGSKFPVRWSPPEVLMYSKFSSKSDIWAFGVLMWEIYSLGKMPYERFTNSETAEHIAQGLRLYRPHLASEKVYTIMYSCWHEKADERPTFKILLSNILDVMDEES

Chain of Lck enzyme (P06239 whole entry): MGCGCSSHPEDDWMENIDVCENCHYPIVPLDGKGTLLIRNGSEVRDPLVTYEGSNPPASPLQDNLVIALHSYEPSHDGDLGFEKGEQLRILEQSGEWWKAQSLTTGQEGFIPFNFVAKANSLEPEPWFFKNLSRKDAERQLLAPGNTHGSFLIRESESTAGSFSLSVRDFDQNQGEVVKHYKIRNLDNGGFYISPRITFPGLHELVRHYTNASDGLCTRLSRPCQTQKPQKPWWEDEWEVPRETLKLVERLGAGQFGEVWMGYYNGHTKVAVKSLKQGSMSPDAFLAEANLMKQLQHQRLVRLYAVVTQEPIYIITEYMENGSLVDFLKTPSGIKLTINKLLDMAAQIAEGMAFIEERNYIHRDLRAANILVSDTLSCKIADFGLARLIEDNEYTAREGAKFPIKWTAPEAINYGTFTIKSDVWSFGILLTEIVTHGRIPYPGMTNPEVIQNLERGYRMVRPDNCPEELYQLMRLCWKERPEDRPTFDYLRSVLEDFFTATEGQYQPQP
Chain of Lyn enzyme (P07948 whole entry): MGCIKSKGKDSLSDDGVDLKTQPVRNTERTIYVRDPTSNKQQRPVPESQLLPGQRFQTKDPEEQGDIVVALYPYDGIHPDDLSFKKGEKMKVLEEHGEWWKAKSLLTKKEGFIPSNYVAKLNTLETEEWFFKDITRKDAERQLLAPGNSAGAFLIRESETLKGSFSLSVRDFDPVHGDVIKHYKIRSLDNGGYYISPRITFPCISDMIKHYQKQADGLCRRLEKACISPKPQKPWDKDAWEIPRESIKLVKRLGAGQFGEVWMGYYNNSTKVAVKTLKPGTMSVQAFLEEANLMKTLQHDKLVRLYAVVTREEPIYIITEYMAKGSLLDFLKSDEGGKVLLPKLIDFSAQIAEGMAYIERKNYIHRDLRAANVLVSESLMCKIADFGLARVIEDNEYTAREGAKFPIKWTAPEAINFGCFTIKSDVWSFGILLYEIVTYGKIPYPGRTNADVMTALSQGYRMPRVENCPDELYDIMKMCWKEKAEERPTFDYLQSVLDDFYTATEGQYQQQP

For `C=CC(=O)N1CCC[C@H]1c1nc(-c2ccc(C(=O)Nc3cc(C)ccn3)cc2)c2c(N)nccn12` [Example 124, (S)-4-(3-(1-acryloylpyrrolidin-2-yl)-8-aminoimidazo[1,5-a]pyrazin-1-yl)-N-(4-methylpyridin-2-yl)benzamide], the “EC50 Lck activity values” on Lck enzyme is below 1 µM. Also, the “EC50 Lyn activity values” at Lyn enzyme was below 1 µM.
Regarding `C=CC(=O)N1CCC[C@H]1c1nc(-c2ccc(C(=O)Nc3cc(-c4ccccc4)ccn3)cc2)c2c(N)nccn12` [Example 133, (S)-4-(3-(1-acryloylpyrrolidin-2-yl)-8-aminoimidazo[1,5-a]pyrazin-1-yl)-N-(4-phenylpyridin-2-yl)benzamide], the “EC50 Lck activity values” on Lck enzyme is below 1 µM. Besides, the “EC50 Lyn activity values” at Lyn enzyme was below 1 µM.
For the compound `CC#CC(=O)N1CCC[C@H]1c1nc(-c2ccc(C(=O)Nc3nccs3)cc2)c2c(N)nccn12` [Example 60, (S)-4-(8-amino-3-(1-but-2-ynoylpyrrolidin-2-yl)imidazo[1,5-a]pyrazin-1-yl)-N-(thiazol-2-yl)benzamide], the “EC50 Btk activity values” at Btk enzyme (His-Btk) was below 100 nM. The “EC50 Lck activity values” on Lck enzyme was below 1 µM. Besides, on Lyn enzyme, the EC50 fell in the range of 100 to 1000 nM and the “EC50 Lyn activity values” is below 1 µM.
For the compound `C=CC(=O)N1CCC[C@H]1c1nc(-c2ccc(C(=O)Nc3cc(CC)ccn3)cc2)c2c(N)nccn12` [Example 126, (S)-4-(3-(1-acryloylpyrrolidin-2-yl)-8-aminoimidazo[1,5-a]pyrazin-1-yl)-N-(4-ethylpyridin-2-yl)benzamide], at Lck enzyme, the “EC50 Lck activity values” is below 1 µM. Moreover, the “EC50 Lyn activity values” at Lyn enzyme is below 1 µM.
As to `C=CC(=O)N1CCC[C@H]1c1nc(-c2ccc(C(=O)Nc3cc(CCC)ccn3)cc2)c2c(N)nccn12` [Example 125, (S)-4-(3-(1-acryloylpyrrolidin-2-yl)-8-aminoimidazo[1,5-a]pyrazin-1-yl)-N-(4-propylpyridin-2-yl)benzamide], at Lck enzyme, the “EC50 Lck activity values” is below 1 µM. The “EC50 Lyn activity values” at Lyn enzyme is below 1 µM.
